≈ marks a conversion by molar mass, not a printed value.
Key:
[1] = system: cultured normal keratinocytes; details: in vitro; cited from earlier work
[2] = system: psoriasis and various cutaneous malignancies; details: cited from earlier work
[3] = system: BALB/c mice; assay: four week topical toxicity study in mice; format: in vivo
From the text: Adult female BALB/c mice, 25-31 gm. weight, were obtained from Jackson Laboratories, Bar Harbor, Me. For toxicology tests, the mice were housed 5/cage and received standard lab chow and tap water ad libitum. A 12-hour light/dark cycle in a humidified atmosphere was utilized. Toxicology Study A cohort of 20 mice were de-haired over a 2 cm^2 dorsal area using the topical depilatory agent, Nair® Lotion (Carter Wallace, Inc., New York, N.Y.). […] The daily dose was delivered by a positive displacement pipette (Micro-Man®, Gilson Scientific, Woburn, Mass.).
Using the murine total body surface area conversion nomogram of Freireich et al., the daily doses for the 3 cream concentrations of 1%, 5% and 10% were 71.4 mg/m^2, 357 mg/m^2, 714 mg/m^2. For the total four week period, the cumulative doses were 1.43 g/m^2, 7.14 g/m^2 and 14.28 g/m^2. […] The skin application sites were observed daily for evidence of any local toxicity (erythema, induration or ulceration) and the animals were weighed weekly. At the end of the four week treatment period, the mice were sacrificed by rapid cervical dislocation and blood samples were obtained for quantifying renal function (BUN, creatinine), hepatic function (SGOT-SGPT, bilirubin), electrolytes (Na^+ K^+ Cl^-, ^- HCO3^-), hematologic indices (WBC with differential, RBC, platelets) and glucose (Animal Diagnostic Laboratories,Tucson, Ariz.).

[4] = chemical stability of α-DFMO in cream, HPLC; format: physicochemical; details: Vanicream, 4° C., six month time point; 262800 min
Experimental: The reverse phase (C-18 column, Alitech Associates, 150 mm×4.6 mm, […]) assay was performed with a 30 minute gradient elution using two mobile phases (A and B) containing aqueous buffer and acetonitrile, respectively. Mobile phase A contained 100 mM sodium acetate, 15 mM triethylamine, and […] sodium EDTA dissolved in water at pH 5.0. Mobile phase B was acetonitrile UV® (Burdick & Jackson, Muskegon, Mich.). The starting proportion, A:B, was 92:8, at 18 min. it was 80:20; at 19-21 min. 40:60; and at 22-30 min. 92:8 [21]. The mobile phase was pumped at 1.2 mL/min. using a Perkin Elmer Biocompatible Binary Pump, a Hitachi AS-2000 Autosampler and a Hewlett Packard Series 1050 Solvent Programmer.
For the stability assays, the 10% cream formulation was stored at 4° C. for up to 6 months and 10 μL aliquots were removed weekly and analyzed by HPLC after extraction using 1 mL distilled water.

[5] = system: mouse skin; assay: in vitro transdermal penetration, mouse skin (diffusion cells); format: in vitro ADME, BALB/c mice
[6] = in vitro; details: skin, topical or ocular
Experimental: (§1) These were minced by scissors and then sonicated for 30 seconds in 100 μL of (0.4 m) HClO4 containing 10 mM internal standard GABA. To this mixture, 100 μL of water was added and the contents were then centrifuged at 10,000×G for 3 min. A 10 μL aliquot of supernatant was added to 40 μL of sodium tetraborate solution (pH 9.3) and mixed with […] the derivatizing agent 6-aminoquinolyi-N-hydroxysuccinimidyl carbamate. This mixture was then heated for 10 min. at 50° C. and a 20 μL aliquot was injected into the HPLC.

[7] = system: human skin; assay: in vitro
Experimental: as §1

[8] = system: mouse skin; assay: α-DFMO content of mouse skin samples; details: 10% α-DFMO in Vanicream, 37° C.
Experimental: as §1

[9] = system: actinic keratoses (AKs); assay: phase IIb study, number of actinic keratoses; format: in vivo, human; details: 10% (w/w) topical, six months, compared to placebo
From the text: (§2) Forty-eight participants with severe actinic keratoses (AKs) on their forearms (i.e. at least ten well circumscribed lesions nonlateral, sun-exposed surfaces) completed a one month run-in on placebo ointment applied twice daily to the affected areas. […] After six months of treatment, all measurements were repeated. […] The study was described at the thirty-second annual meeting of the American Society of Clinical Oncology on May 18-21, 1996.

[10] = system: total polyamines; assay: phase IIb study, total polyamines; format: in vivo, human; details: 10% (w/w) topical, six months, compared to placebo
From the text: as §2

[11] = phase IIb study, α-DFMO in skin and blood
From the text: as §2

[12] = in vivo
From the text: as §2

[13] = solubility limit in the vehicle; format: physicochemical; details: in the particular vehicle used
From the text: Having thus described the invention, it will be apparent to those of skill in the art that modifications can be made within the scope of the invention. […] Also, the vehicle cannot contain absorption enhancers.

[14] = system: ornithine decarboxylase; details: time and concentration dependence, reversibility; cited from earlier work
[15] = system: human skin
[16] = system: mouse epidermis; details: five percent solution, in vitro; cited from earlier work
[17] = system: UVB induced skin cancer; details: cited from earlier work
[18] = oral, single 0.5 g/m^2 dose given daily, cited from earlier work
[19] = system: skin ODC; details: five of seven subjects, 6 hours after oral dosing, 0.5 g/m^2; cited from earlier work
[20] = system: psoriatic lesions; details: cited from earlier work
[21] = oral, humans; cited from earlier work
[22] = system: human skin; assay: in vitro transdermal penetration, human skin (diffusion cells); details: 24 hours, 37° C., 10% α-DFMO
[23] = ten percent cream with absorption enhancer, ten patients

Structure (SMILES): CC(/C=N/NC(=N)N)=N\NC(=N)N [MGBG, mitoguazone]
- proliferation of cultured normal keratinocytes [1]: decrease the proliferation
- skin irritation ([2]; in vivo): highly irritating
- therapeutic effects in psoriasis and various cutaneous malignancies ([2]; topically or intralesionally): produces therapeutic effects

Structure (SMILES): NCCC[C@](N)(C(=O)O)C(F)F [α-DFMO, alpha-difluoromethylornithine]
- drug related alterations in weight gain ([3]; mouse, in vivo): without drug related alterations in weight gain
- hair regrowth ([3]; mouse, in vivo): proceeded normally
- local skin irritation ([3]; mouse, in vivo): no evidence of local skin irritation
- serum enzymes, electrolytes or hematologic parameters ([3]; mouse, in vivo): no alterations
- survival ([3]; topical 1%, 5% or 10% cream, through the study period): survived through the study period
- toxicity in mice (summary) ([3]; topical formulation): nontoxic in mice
- loss of α-DFMO [4]: < 1%
- uptake into and penetration through mouse skin [5]: significant α-DFMO uptake into and penetration through mouse skin
- degree of transdermal penetration versus azone-containing formulation ([5]; 10% α-DFMO in Vanicream, mice, vs 5% α-DFMO with azone): substantially less
- calculated penetration rate ([5]; mouse skin, 10% α-DFMO formulation in Vanicream): 3.6 μg/cm^2 /hour
- mean percent uptake (transdermal penetration) ([5]; mouse skin, 37° C., 24 hours, 10% α-DFMO): 61.53 % of the applied dose
- time of maximal transdermal penetration ([5]; mouse skin, 37° C., Vanicream): 24 h
- time of maximal penetration ([5]; mouse skin, hydrophilic ointment U.S.P., 37° C.): 12 h
- concentration at 24 h ([6]; human): 323000 ng/g
- concentration at 4 h ([6]; mouse): 7.25e+06 ng/g
- intradermal levels [7]: substantial intradermal levels
- time of peak uptake into human skin [7]: 24 h
- concentration ([7]; human, skin, topical or ocular): 1360 µM
- time of peak uptake into mouse skin [8]: 4 h
- reduction in the number of AKs [9]: 21%
- suppression of total polyamines [10]: 21%
- α-DFMO in blood ([11]; 10% (w/w) topical, six months): not detected in blood
- systemic uptake ([11]; in vivo): no systemic uptake
- treated forearms with high DFMO skin levels ([11]; in vivo): thirteen
- participants with moderately severe skin rash [12]: one
- participants with skin rash in the area of DFMO application [12]: Four
- systemic toxicities [12]: no systemic toxicities
- solubility [13]: ~220 mg/mL (≈ 1210 mM)
- inhibition of ornithine decarboxylase [14]: time and concentration dependent but is irreversible
- time until transdermal human skin penetration apparent [15]: > 20 h
- putrescine levels [16]: twenty-five
- spermine and spermidine levels [16]: not affected
- synthesis of DNA [16]: blocks the synthesis of DNA
- body weight loss ([17]; 1% drinking water solution): 16%
- hyperactivity ([17]; 1% drinking water solution): sound-induced hyperactivity
- UVB induced skin cancer incidence ([17]; 1% solution in drinking water, reduced from 38%): 9%
- UVB-induced immunosuppression ([17]; oral α-DFMO regimen, 1% in drinking water): prevented UVB-induced immunosuppression
- plasma concentration×time product [18]: 311 μm×hr
- terminal phase half life [18]: 3.5 h
- Cmax ([18]; read-out: peak α-DFMO plasma concentrations): 47.1 µM
- reduction in skin ODC levels [19]: ≥ 50%
- systemic uptake ([20]; human, in vivo): systemic uptake in the patients
- improvement in psoriatic lesions [20, 23]: marginal improvement
- reduction of cutaneous spermine levels [20, 23]: sixty-six
- ototoxicity [21]: associated with ototoxicity
- degree of penetration [22]: 0.7 % of the applied concentration

Reference: patent US5851537A (priority 1997, dated 1998)
